Patent US9765213B2, “Drug carriers comprising amphilphilic block copolymers” (BIOCOMPATIBLES UK LIMITED, priority 2002, dated 2017)
Where a name gives a salt, the structure may show the parent alone. Numbered stars: 1 amine (or outer) side, 2 acyl side, 3 side chain; on linkers, the order of the positions; unused ones are H or OH. Bridge positions count the residues as written; N and C are the ends. Square brackets hold non-standard residues; d marks the D form. Peptide text beside a SMILES is read from it. I, II: the chains in the order shown. Actinocin(9to1) = Cc1c2oc3c(C)ccc(C(=O)[*:1])c3nc-2c(C(=O)[*:2])c(N)c1=O; NMeV = CN[C@H](C(=O)O)C(C)C; Sar = CNCC(=O)O

Assays:
[1] = octanol/water; determined experimentally, literature; cited from earlier work
[2] = Dipyridamole loading by pH change; format: physicochemical
Method: In another example of drug loading, a solution of the drug dipyridamole was used given the intensely coloured nature of the drug allows simple detection. At pH 2 this drug was dissolved to give a fluorescent green-yellow solution. By adjusting the pH to 9-10 the drug was seen to precipitate.

[3] = Release of solubilised Orange OT dye from micelles by lowered pH (particle size); format: physicochemical
Description: The release of solubilised Orange OT dye from micelles, as a model for drug release, using lowered pH as the stimuli was examined.

SMILES | LogP (Exp) [1] | also measured
Nc1nc2nc[nH]c2c(=S)[nH]1 [6-Thioguanine] | −0.28 | 
Cc1c2oc3c(C)ccc(C(=O)N[C@@H]4C(=O)N[C@H](C(C)C)C(=O)N5CCC[C@H]5C(=O)N(C)CC(=O)N(C)[C@@H](C(C)C)C(=O)O[C@@H]4C)c3nc-2c(C(=O)N[C@@H]2C(=O)N[C@H](C(C)C)C(=O)N3CCC[C@H]3C(=O)N(C)CC(=O)N(C)[C@@H](C(C)C)C(=O)O[C@@H]2C)c(N)c1=O [Actinomycin] (I: T[dV]P[Sar][NMeV] / II: T[dV]P[Sar][NMeV]; ester I:1-I:C, II:1-II:C; linker I:N-II:N via Actinocin(9to1)) | 0.997 | 
COCc1c(C(C)C)nc(C(C)C)c(/C=C/[C@@H](O)C[C@@H](O)CC(=O)O)c1-c1ccc(F)cc1 [Cerivastatin] | 2.05 | 
O=C1CCc2cc(OCCCCc3nnnn3C3CCCCC3)ccc2N1 [Cilostazol] | 2.3 | 
OCCN(CCO)c1nc(N2CCCCC2)c2nc(N(CCO)CCO)nc(N3CCCCC3)c2n1 [Dipyramidole] |  | solubility behaviour of the drug ([2]; pH 2): dissolved; solubility behaviour of the drug ([2]; pH 9-10): precipitate
C[C@]12CC[C@@H]3c4ccc(O)cc4CC[C@H]3[C@@H]1CC[C@@H]2O [Estradiol] | 4.3 | 
COc1cc([C@@H]2c3cc4c(cc3[C@@H](O[C@@H]3O[C@@H]5CO[C@@H](C)O[C@H]5[C@H](O)[C@H]3O)[C@H]3COC(=O)[C@H]23)OCO4)cc(OC)c1O [Etoposide] | 0.99 | 
O=c1[nH]cc(F)c(=O)[nH]1 [Fluorouracil] | −1 | 
CC(C)n1c(/C=C/C(O)CC(O)CC(=O)O)c(-c2ccc(F)cc2)c2ccccc21 (centres unmarked) [Fluvastatin] | 1.67 | 
CC[C@H](C)C(=O)O[C@H]1C[C@@H](C)C=C2C=C[C@H](C)[C@H](CC[C@@H]3C[C@@H](O)CC(=O)O3)[C@H]21 [Lovastatin] | 1.7 | 
Cc1ccccc1N=Nc1c(O)ccc2ccccc12 [Orange OT] |  | share of the particle population ([3]; pH 4.5, after release from MPC30-DEA60 micelles): 1%; mean particle diameter of released dye aggregates ([3]; released from MPC30-DEA60 micelles, pH reduced to pH 4.5): 113 nm
CC[C@H](C)C(=O)O[C@H]1C[C@H](O)C=C2C=C[C@H](C)[C@H](CC[C@@H](O)C[C@@H](O)CC(=O)O)[C@H]21 [Pravastatin] | −0.23 | 
CC(=O)O[C@H]1C(=O)[C@@]2(C)[C@H]([C@H](OC(=O)c3ccccc3)[C@]3(O)C[C@H](OC(=O)[C@H](O)[C@@H](NC(=O)c4ccccc4)c4ccccc4)C(C)=C1C3(C)C)[C@]1(OC(C)=O)CO[C@@H]1C[C@@H]2O [Taxol] | 3.98 | 
CC[C@]1(O)C[C@@H]2CN(CCc3c([nH]c4ccccc34)[C@@](C(=O)OC)(c3cc4c(cc3OC)N(C)[C@H]3[C@@](O)(C(=O)OC)[C@H](OC(C)=O)[C@]5(CC)C=CCN6CC[C@]43[C@@H]65)C2)C1 [Vinblastine] | 1.68 | 
CC[C@]1(O)C[C@H]2CN(CCc3c([nH]c4ccccc34)[C@@](C(=O)OC)(c3cc4c(cc3OC)N(C=O)[C@H]3[C@@](O)(C(=O)OC)[C@H](OC(C)=O)[C@]5(CC)C=CCN6CC[C@]43[C@@H]65)C2)C1 [Vincristine Sulfate] | 2.14 | 
